Measurements: patent US20120114639A1, “COMPOSITIONS AND METHODS FOR INHIBITING VIRAL AND/OR BACTERIAL INFECTIONS” (priority 2010, published 2012)

Key:
[1] = tested on: HPV16; assay: HPV16 PsV infection of HaCaT cells, luciferase assay; format: cell-based, human papillomavirus; details: for restoration of HPV16 infectivity in SFM by added factor: serum-starved HaCaT, HPV16 bound in SFM, 24 hours in SFM plus factor, compared to CM; for block of HPV16 infection / reduction of infectivity: HaCaT in CM, 24 hours in presence of inhibitor, 1 μM AG1478, 100 nM PD168393, 100 μM genistein, 1 μM PD173074, 100-600 nM cetuximab, 100 vge/cell; for visible toxicity in dose-response analysis: HaCaT cells, dose-response of infection inhibition; for IC50: Human papillomavirus 16, HaCaT, read-out: IC50 of HPV16 infection inhibition
Description: FIG. 2. […] (A, B) Immunoblot for syndecan-1 (polyclonal syndecan-1 Ab) after 24 hours at 37° C. in CM (A) or post starvation in SFM and after six hours at 37° C. in Tyrode's Buffer (B); immunoblot for HPV16 L1 released into CM post virus binding for indicated times (C) or 24 hours (E). […] Cells were untreated (U) or pre-treated with BM or MM for one hour, then exposed to HPV16 PsV in the presence of inhibitors in CM. Infection was assayed by quantifying luciferase levels at 24 hours p.i. (F). Data are represented as mean±SEM of three experiments. (G-H) IC50 of HPV16 infectivity inhibition by MMIP inhibitors batimastat and mariniastat. HaCaT cells incubated with serial dilutions of batimastat or marimastat in CM, for one hour before incubation with 100 viral genome equivalents (vge)/cell HPV16, one hour at 4° C. After washing away unbound virus, cells were incubated for 24 hours at 37° C. in the presence of inhibitors. HPV16 infection was measured with luciferase assay. Data are represented as mean±SEM of 3 experiments.
(§1) FIG. 7. […] (A) Relative HPV16 infection of HaCaT cells in the presence of specific GFR and protein tyrosine kinase inhibitors. […] Cells were exposed to HPV16 PsV at 100 vge/cell for one hour at 4° C., then washed extensively and shifted to 37° C. in the presence of the indicated inhibitor in CM for 24 hours at which time they were analyzed for luciferase expression. Data are represented as mean±SEM of three experiments. (B-C) EGFR knockdown was accomplished using siRNA to EGFR and the percent of EGFR protein remaining in EGFR-siRNA transfected HaCaT cells was determined by immunoblot and compared by densitometry to EGFR levels in cells transfected with a negative control siRNA at 48 hours post transfection. Four separate transfections were analyzed (B) and HPV16 PsV infection levels were measured at 24 hours post infection (48 hours post transfection) in each (C). Error bars represent the average of triplicate luciferase readings from the four transfections. (D) Cells were pre-treated four hours with 100 μm monastrol, pre-treated with monastrol for four hours plus PD168393 for duration, or pre-treated with PD168393 for four hours plus monastrol for duration. […] HaCaT cells starved in SFM (four hours) were exposed to HPV16 in CM (positive control) or SFM. After washing away unbound virus, cells were incubated for 24 hours in CM, Ty (Tyrode's buffer containing 0.05% BSA), SFM, syndecan-1 depleted CM (IP-syd), or EGF-depleted CM (IP-EGF). Infection was quantified by luciferase assay 24 hours post shift to 37° C. Data are represented as mean SEM of three experiments. […] HaCaT cells starved in SFM were exposed to HPV16 in SFM for one hour at 4° C. After washing away unbound virus, cells were incubated for 24 hours in. SFM, SFM containing GF, or in CM. Infections were quantified by luciferase assay; bars represented the mean SEM of three individual experiments. (G). To investigate if infection inhibition by the various agents used in FIG. 7A,D,E could be attributed to cell cycle changes, we used identical conditions and timing of inhibitor treatment on HaCaT cells. We then stained with propidium iodide and examined the cell cycle using flow cytometry. The fractions of cells in G1 (1n), S (intermediate), and G2/M (2n) phases were expressed as percentages of the total.

[2] = tested on: p-EGFR, p-KGFR and downstream effector p-ERK1/2; assay: EGFR and KGFR signal activation, phospho-protein immunoblot in serum-starved HaCaT cells; format: cell-based, human; details: 10 minutes ligand exposure; 100 nM PD168393, 1 μM PD173074, 100 μM genistein, 100 μM daidzein, 600 nM cetuximab
Description: FIG. 6. […] (A-B) Immunoblot of p-EGFR, p-KGFR and downstream effector p-ERK1/2 following 10 minutes ligand exposure (listed at the left of each blot: EGF, KGF, HPV16 PsV; lane 2) in serum-starved HaCaT cells. Mock exposed cells were negative controls (lane 1); ligand controls included 10 ng/ml EGF and 10 ng/ml KGF exposure (10 minutes). […] Actin is detected as a loading control. (C-D) Immunoblot of nuclear cell fractions and confocal microscopy localization of p-ERK1/2 following EGF and HPV16 exposure in serum-starved HaCaT cells at indicated times post-exposure. (C) Immunoblot for p-ERK1/2 in nuclear fractions from exposed cells. (D) Immunofluorescent confocal microscopy for localization of p-ERK1/2 (red) in PsV exposed cells. DAPI was used as a nuclear marker and was pseudocolored green to facilitate efficient co-localization of p-ERK1/2 in the nucleus. Parameters of lasers intensities were kept constant during the imaging.
Subconfluent HaCaT cells were serum-starved for 3-4 hours in Tyrode's buffer containing 0.05% BSA. After adding ˜100 vge/cell HPV16 PsV, 10 ng/ml EGF or 10 ng/ml KFG, cells were incubated at 37° C. for 10 minutes before transferring to ice and solubilizing cells with RIPA buffer. In some experiments cells were incubated with various inhibitors in Tyrode's buffer for 45 minutes and after Tyrode's washes, were incubated with virus as above in the presence of inhibitors. Lysates were clarified, mixed with Laemmli buffer and boiled for five minutes prior to SDS-PAGE Tmmunoblot was performed with various monoclonal and polyclonal antibodies: p-EGFR, p-KGFR (p-FGFR2b), p-ERK, actin. Nuclear fractionation was performed for detection of p-ERK movement into the nucleus. HaCaT cells were starved 4 h in Tyrode's solution containing 0.05% BSA, then exposed to HPV or EGF for various times. Cells were solubilized with NP40 lysis buffer and centrifuged. The pellet was incubated with nuclear extraction buffer. Following incubation on ice for one hour, the extract was clarified and the supernatant subjected to SDS-PAGE and immunoblot for analysis of p-ERK content.

[3] = tested on: HaCaT cells; assay: Cell cycle analysis by propidium iodide flow cytometry; format: cell-based, human; details: HaCaT cells in CM infected with HPV16, same inhibitor conditions as infection assays
Description: as §1, with “To investigate if infection inhibition by the various agents used in FIG. 7A,D,E could be attributed to cell cycle changes, we used identical conditions and timing of inhibitor treatment on HaCaT cells. We then stained with propidium iodide and examined the cell cycle using flow cytometry.” left out

[4] = tested on: HPV16; assay: HPV16 release from HaCaT cells into media, L1 immunoblot; format: cell-based, human papillomavirus; details: CM, MMP inhibitor, FIG. 2E
Description: FIG. 2. HPV16 and syndecan-1 release from the HaCaT cell plasma membrane is MMP dependent. (A, B) Immunoblot for syndecan-1 (polyclonal syndecan-1 Ab) after 24 hours at 37° C. in CM (A) or post starvation in SFM and after six hours at 37° C. in Tyrode's Buffer (B); immunoblot for HPV16 L1 released into CM post virus binding for indicated times (C) or 24 hours (E). (D) Gelatin zymography showing protease activity present in HaCaT cell CM alone or with binding of HPV16. (E-F) Effect of MMP inhibitors batimistat (BM) or marimastat (MM) at the indicated concentrations on HPV16 release into media as in panel C and densitometric quantification with AlphaEaseFC software (E) and relative infection levels (F). Cells were untreated (U) or pre-treated with BM or MM for one hour, then exposed to HPV16 PsV in the presence of inhibitors in CM. Infection was assayed by quantifying luciferase levels at 24 hours p.i. (F). Data are represented as mean±SEM of three experiments. […] HPV16 infection was measured with luciferase assay. […]
HaCaT cells were incubated with 200 vge/cell of HPV PsVs for 1 h at 4° C., washed three ties with media and incubated at 37° C. for various times before harvesting the experimental media. […] The eluted fractions were analyzed by SDS-PAGE followed by immunoblotting for HPV16 L1, proteoglycans and growth factors. […]

Q: For albumin, which “restoration of HPV16 infectivity in SFM by added factor” value [1] is on record?
A: The value was “did not enhance infectivity”.

Q: How did the “restoration of HPV16 infectivity in SFM by added factor” value [1] turn out when EGF: epidermal growth factor was run?
A: Its value is “fully restore infection levels”.

Q: Which “rapid phosphorylation of the target GFR and downstream p-ERK1/2 induced by GFs or HPV16” value [2] does the source give for `COc1cc2ncnc(Nc3cccc(Cl)c3)c2cc1OC` [AG1478] here?
A: The value was “completely abrogating signaling”.

Q: Which results are given for `O=c1c(-c2ccc(O)cc2)coc2cc(O)cc(O)c12` [genistein]?
A: block of HPV16 infection / reduction of infectivity [1]: almost completely blocked infection; rapid phosphorylation of the target GFR and downstream p-ERK1/2 induced by GFs or HPV16 [2]: diminished

Q: For `C=CC(=O)Nc1ccc2ncnc(Nc3cccc(Br)c3)c2c1` [PD168393], which “infection inhibition when PD168393 treatment was added with monastrol” value ([1]; HaCaT, 100 μM monastrol plus PD168393, FIG. 7D) is on record?
A: Its value is “≈ 70%”.

Q: What about the “cell cycle distribution (G1, S, G2/M) versus no treatment” value [3] of the same compound?
A: The value was “relatively similar”.

Q: What about the “rapid phosphorylation of the target GFR and downstream p-ERK1/2 induced by GFs or HPV16” value [2] of the same compound?
A: Its value is “diminished”.

Q: What does the source list for `CNC(=O)[C@@H](NC(=O)[C@H](CC(C)C)[C@H](O)C(=O)NO)C(C)(C)C` [marimastat]?
A: HPV16 infection of HaCaT cells (in words) ([1]; CM, luciferase 24 hours p.i.): efficiently reduced HPV16 infection; infection inhibition under cell cycle assay conditions ([1]; HaCaT cells grown in CM and infected with HPV16): ~90%; visible toxicity in dose-response analysis [1]: absence of visible toxicity; IC50 [1]: 1000 nM; release of HPV16 from cells [4]: effectively prevented the release; cell cycle distribution (G1, S, G2/M) versus no treatment [3]: relatively similar

Q: Which results are given for `CCN(CC)CCCCNc1ncc2cc(-c3cc(OC)cc(OC)c3)c(NC(=O)NC(C)(C)C)nc2n1` [PD173074]?
A: block of HPV16 infection / reduction of infectivity [1]: 35%; cell cycle distribution (G1, S, G2/M) versus no treatment [3]: relatively similar

Q: Which “visible toxicity in dose-response analysis” value [1] does the source give for `CNC(=O)[C@H](Cc1ccccc1)NC(=O)[C@H](CC(C)C)[C@H](CSc1cccs1)C(=O)NO` [batimastat] here?
A: The value was “absence of visible toxicity”.

Q: And the IC50 [1]?
A: The IC50 was 400 nM.

Q: Which “rapid phosphorylation of the target GFR and downstream p-ERK1/2 induced by GFs or HPV16” value [2] does the source give for `O=c1c(-c2ccc(O)cc2)coc2cc(O)ccc12` [daidzein] here?
A: Its value is “no inhibitory effect”.
